This note sets out measurements from patent US20180148418A1, “AMIDO-SUBSTITUTED CYCLOHEXANE DERIVATIVES” (Bayer Pharma Aktiengesellschaft, priority 2015, published 2018).

Experiment [1] relates to HEK293 cells cotransfected with the FOP control vector. Briefly: HEK293 FOP assay (control reporter with non-functional TCF elements). The class given is cell-based. The following applies: 16 hours. The method, boiled down: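 Stable HEK293 line carrying FOP control reporter (randomized non-functional TCF sites, with pcDNA3), Geneticin-selected, plated 24 h before assay. Stimulated with recombinant human Wnt-3a (2500-5 ng/ml) and compounds 50 μM–15 nM (3.16-fold steps) in CAFTY buffer pH 7.4 with 2 mM Ca2+, 0.01% BSA, run parallel to TOP line.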

In the next experiment the target is T1, TNKS1 (Homo sapiens, UniProt O95271).
T1 construct: purchased BPS Bioscience, San Diego, USA 80579 (TNKS1 Histone Ribosylation Assay Kit)
T1 sequence (O95271 1-1327): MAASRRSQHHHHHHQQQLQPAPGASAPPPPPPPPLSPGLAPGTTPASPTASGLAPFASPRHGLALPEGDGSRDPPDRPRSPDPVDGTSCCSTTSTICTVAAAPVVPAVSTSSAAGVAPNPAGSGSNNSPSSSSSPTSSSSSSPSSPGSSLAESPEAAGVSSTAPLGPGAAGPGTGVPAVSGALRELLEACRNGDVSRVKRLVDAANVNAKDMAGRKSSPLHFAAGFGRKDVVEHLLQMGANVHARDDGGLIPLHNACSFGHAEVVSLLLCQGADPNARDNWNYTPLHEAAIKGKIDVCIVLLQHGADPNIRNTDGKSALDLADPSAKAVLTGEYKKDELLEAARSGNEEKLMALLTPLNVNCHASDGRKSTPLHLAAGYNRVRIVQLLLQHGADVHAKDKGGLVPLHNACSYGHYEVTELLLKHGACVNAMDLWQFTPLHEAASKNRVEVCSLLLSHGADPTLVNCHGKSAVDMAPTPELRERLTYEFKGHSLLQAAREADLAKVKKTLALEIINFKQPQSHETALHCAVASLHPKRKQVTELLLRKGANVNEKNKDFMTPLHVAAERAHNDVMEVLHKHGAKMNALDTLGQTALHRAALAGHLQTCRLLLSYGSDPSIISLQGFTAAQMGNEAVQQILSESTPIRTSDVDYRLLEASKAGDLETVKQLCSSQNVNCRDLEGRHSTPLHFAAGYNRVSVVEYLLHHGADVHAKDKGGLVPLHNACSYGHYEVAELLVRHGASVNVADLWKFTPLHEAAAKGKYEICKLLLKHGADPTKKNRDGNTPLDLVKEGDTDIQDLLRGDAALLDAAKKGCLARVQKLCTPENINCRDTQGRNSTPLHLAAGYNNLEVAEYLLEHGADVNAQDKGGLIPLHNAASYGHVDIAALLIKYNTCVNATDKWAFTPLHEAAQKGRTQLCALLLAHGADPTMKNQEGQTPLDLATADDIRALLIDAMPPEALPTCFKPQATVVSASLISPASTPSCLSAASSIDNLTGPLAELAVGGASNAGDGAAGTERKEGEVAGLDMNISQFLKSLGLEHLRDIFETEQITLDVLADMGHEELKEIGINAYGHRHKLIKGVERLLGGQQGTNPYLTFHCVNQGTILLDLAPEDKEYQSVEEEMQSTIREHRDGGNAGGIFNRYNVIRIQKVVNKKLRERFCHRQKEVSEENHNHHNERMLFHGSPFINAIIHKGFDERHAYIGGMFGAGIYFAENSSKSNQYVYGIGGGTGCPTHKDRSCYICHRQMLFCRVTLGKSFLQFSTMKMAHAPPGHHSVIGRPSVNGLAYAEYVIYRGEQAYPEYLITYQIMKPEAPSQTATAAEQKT
Briefly: TNKS1 Assay B (auto-parsylation, [3H]-NAD+ SPA). Type of experiment: biochemical. The following applies: 6 nM TNKS1, auto-parsylation, over night at room temperature.

A word on the pIC50: it is the negative decadic logarithm of the IC50, by convention in mol/L. A low value points to a large IC50.

pIC50: −log10 of the molar value.

For the compound `Cc1c(C(C)N(C)C)cnc2c(C(=O)N[C@H]3CC[C@H](C(=O)Nc4ccc(F)cc4Cl)CC3)cnn12` (single isomer, unassigned) [Example 57, N-{trans-4-[(2-chloro-4-fluorophenyl)carbamoyl]cyclohexyl}-6-[1-(dimethylamino)ethyl]-7-methylpyrazolo[1,5-a]pyrimidine-3-carboxamide], the pIC50 was not above 4.30 in experiment [1] and 6.36 against TNKS1.

For the compound `COCc1cc(C)nc2c(C(=O)N[C@H]3CC[C@H](C(=O)Nc4ccc(F)cc4Cl)CC3)cnn12` [Example 111, N-{trans-4-[(2-chloro-4-fluorophenyl)carbamoyl]cyclohexyl}-7-(methoxymethyl)-5-methylpyrazolo[1,5-a]pyrimidine-3-carboxamide], the pIC50 in experiment [1] (Homo sapiens) is not above 4.30; against TNKS1, 6.28.

With `Cc1cc(C)n2ncc(C(=O)NC34CCC(C(=O)Nc5ccc(F)cc5Cl)(CC3)CC4)c2n1` [Example 125, N-{4-[(2-chloro-4-fluorophenyl)carbamoyl]bicyclo[2.2.2]oct-1-yl}-5,7-dimethylpyrazolo[1,5-a]pyrimidine-3-carboxamide], the pIC50 in experiment [1] (Homo sapiens) was not above 4.30; on TNKS1, 6.92.

For `CN(c1ccc(F)cc1Cl)C(=O)[C@H]1CC[C@H](NC(=O)c2cnn3cccnc23)CC1` [Example 155, N-{trans-4-[(2-chloro-4-fluorophenyl)(methyl)carbamoyl]cyclohexyl}pyrazolo[1,5-a]pyrimidine-3-carboxamide], the pIC50 in experiment [1] (Homo sapiens) is not above 4.30; against TNKS1 it was 6.85.

Turning to `O=C(NC12CCC(C(=O)Nc3ccc(F)cc3Cl)(CC1)CC2)c1cnn2cccnc12` [Example 117, N-{4-[(2-chloro-4-fluorophenyl)carbamoyl]bicyclo[2.2.2]oct-1-yl}pyrazolo[1,5-a]pyrimidine-3-carboxamide], the pIC50 is not above 4.30 in experiment [1] (Homo sapiens) and 6.47 against TNKS1.

`O=C(NCC(F)(F)F)c1nc[nH]c1C(=O)N[C@H]1CC[C@H](C(=O)Nc2cc(N3CCOCC3)ccc2Cl)CC1` [Example 95, N^5-(trans-4-{[2-chloro-5-(morpholin-4-yl)phenyl]carbamoyl}cyclohexyl)-N^4-(2,2,2-trifluoroethyl)-1H-imidazole-4,5-dicarboxamide]: the pIC50 was 4.41 in experiment [1] (Homo sapiens) and 5.62 on TNKS1.

`COC(C)(C)CNC(=O)c1nc[nH]c1C(=O)N[C@H]1CC[C@H](C(=O)Nc2cnccc2Cl)CC1` [Example 98, N^5-{trans-4-[(4-chloropyridin-3-yl)carbamoyl]cyclohexyl}-N^4-(2-methoxy-2-methylpropyl)-1H-imidazole-4,5-dicarboxamide]: the pIC50 was not above 4.30 in experiment [1] (Homo sapiens) and 7.27 against TNKS1.

As for `O=C(NCC1CCCO1)c1nc[nH]c1C(=O)N[C@H]1CC[C@H](C(=O)Nc2cc(F)ccc2Cl)CC1` (stereo partly drawn) [Example 129, N^5-{trans-4-[(2-chloro-5-fluorophenyl)carbamoyl]cyclohexyl}-N^4-(tetrahydrofuran-2-ylmethyl)-1H-imidazole-4,5-dicarboxamide], the pIC50 in experiment [1] (Homo sapiens) is 4.41; on TNKS1 it was 7.35.

Turning to `CNC(=O)c1nc[nH]c1C(=O)N[C@H]1CC[C@H](C(=O)Nc2ccc(F)cc2)CC1` [Example 8, N^5-{trans-4-[(4-fluorophenyl)carbamoyl]cyclohexyl}-N^4-methyl-1H-imidazole-4,5-dicarboxamide], the pIC50 in experiment [1] (Homo sapiens) is not above 4.30; against TNKS1, 5.39.

With `Cc1cc(F)cc(Cl)c1NC(=O)[C@H]1CC[C@H](NC(=O)c2cnn3cccnc23)CC1` [Example 151, N-{trans-4-[(2-chloro-4-fluoro-6-methylphenyl)carbamoyl]cyclohexyl}pyrazolo[1,5-a]pyrimidine-3-carboxamide], the pIC50 is not above 4.30 in experiment [1] (Homo sapiens) and 6.33 at TNKS1.

For `COCc1cc(C)n2ncc(C(=O)N[C@H]3CC[C@H](C(=O)Nc4c(F)cc(F)cc4Cl)CC3)c2n1` [Example 112, N-{trans-4-[(2-chloro-4,6-difluorophenyl)carbamoyl]cyclohexyl}-5-(methoxymethyl)-7-methylpyrazolo[1,5-a]pyrimidine-3-carboxamide], the pIC50 in experiment [1] (Homo sapiens) is not above 4.30; against TNKS1 it was 6.82.

With `COC(C)(C)CNC(=O)c1nc[nH]c1C(=O)N[C@H]1CC[C@H](C(=O)Nc2cc(C)c(F)cc2Cl)CC1` [Example 101, N^5-{trans-4-[(2-chloro-4-fluoro-5-methylphenyl)carbamoyl]cyclohexyl}-N^4-(2-methoxy-2-methylpropyl)-1H-imidazole-4,5-dicarboxamide], the pIC50 in experiment [1] (Homo sapiens) is 4.46; at TNKS1, 6.80.

On to `CN1CCN(c2ccn3ncc(C(=O)N[C@H]4CC[C@H](C(=O)Nc5ccc(F)cc5Cl)CC4)c3n2)CC1` [Example 109], for which the pIC50 in experiment [1] (Homo sapiens) is not above 4.30; against TNKS1 it was 7.21.

As to `Cc1cc(C)n2ncc(C(=O)N[C@H]3CC[C@@]4(CCN(c5ccc(F)cc5Cl)C4=O)CC3)c2n1` [Example 139, N-[(trans)-2-(2-chloro-4-fluorophenyl)-1-oxo-2-azaspiro[4.5]dec-8-yl]-5,7-dimethylpyrazolo[1,5-a]pyrimidine-3-carboxamide], the pIC50 in experiment [1] (Homo sapiens) is not above 4.30; against TNKS1, 7.96.

For `CNC(=O)c1nc[nH]c1C(=O)N[C@H]1CC[C@H](C(=O)Nc2cnccc2Cl)CC1` [Example 96, N^5-{trans-4-[(4-chloropyridin-3-yl)carbamoyl]cyclohexyl}-N^4-methyl-1H-imidazole-4,5-dicarboxamide], the negative-log IC50 (pIC50) in experiment [1] (Homo sapiens) is 4.74; against TNKS1, 7.40.

With `O=C(N[C@H]1CC[C@H](C(=O)Nc2ccncc2Cl)CC1)c1cnn2cccnc12` [Example 105, N-{trans-4-[(3-chloropyridin-4-yl)carbamoyl]cyclohexyl}pyrazolo[1,5-a]pyrimidine-3-carboxamide], the pIC50 in experiment [1] (Homo sapiens) was not above 4.30; on TNKS1 it was 6.72.

Turning to `O=C(N[C@H]1CC[C@H](C(=O)Nc2ccc(F)cc2Cl)CC1)c1cnn2ccc(N3CCOCC3)nc12` [Example 107, N-{trans-4-[(2-chloro-4-fluorophenyl)carbamoyl]cyclohexyl}-5-(morpholin-4-yl)pyrazolo[1,5-a]pyrimidine-3-carboxamide], the pIC50 was not above 4.30 in experiment [1] (Homo sapiens) and 6.92 on TNKS1.

As for `Cc1cnc2c(C(=O)N[C@H]3CC[C@@]4(CCN(c5ccc(F)cc5Cl)C4=O)CC3)cnn2c1` [Example 137, N-[(trans)-2-(2-chloro-4-fluorophenyl)-1-oxo-2-azaspiro[4.5]dec-8-yl]-6-methylpyrazolo[1,5-a]pyrimidine-3-carboxamide], the pIC50 in experiment [1] (Homo sapiens) is not above 4.30; against TNKS1, 7.96.

With `COCC(C)NC(=O)c1nc[nH]c1C(=O)N[C@H]1CC[C@@]2(CCN(c3ccc(F)cc3Cl)C2=O)CC1` (mixture of isomers) [Example 164, N^5-[(trans)-2-(2-chloro-4-fluorophenyl)-1-oxo-2-azaspiro[4.5]dec-8-yl]-N^4-(1-methoxypropan-2-yl)-1H-imidazole-4,5-dicarboxamide], the pIC50 in experiment [1] (Homo sapiens) is not above 4.30; at TNKS1 it was 7.43.

As for `O=C(NC12CCC(C(=O)Nc3cnccc3Cl)(CC1)CC2)c1cnn2cccnc12` [Example 120, N-{4-[(4-chloropyridin-3-yl)carbamoyl]bicyclo[2.2.2]oct-1-yl}pyrazolo[1,5-a]pyrimidine-3-carboxamide], the pIC50 in experiment [1] (Homo sapiens) is 5.15; against TNKS1, 6.68.

Take `Cc1cc(NC(=O)C23CCC(NC(=O)c4cnc5cccnn45)(CC2)CC3)c(Cl)cc1F` [Example 122, N-{4-[(2-chloro-4-fluoro-5-methylphenyl)carbamoyl]bicyclo[2.2.2]oct-1-yl}imidazo[1,2-b]pyridazine-3-carboxamide]: the values for the pIC50 (in experiment [1] (Homo sapiens); on TNKS1) were not above 4.30 and 6.62, respectively.
